Assay results: patent publication US8969516B2, “Method of hydrolysis of peptide bond” (priority 2006, dated 2015)

Assay: MALDI-TOF screening of Ni^2+ dependent hydrolysis in a combinatorial peptide library
Assay type: physicochemical
Settings: CH3CO-Gly-Ala-Thr-X-His-Z-Lys-Phe-Leu-NH2 library, Ni^2+ 2 mM, pH 8.2, 10 mM Tris, score=24/tm
Method in brief: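 MALDI-TOF read-out: appearance of Ser/Thr-X-His-Z-Lys-Phe-Leu-NH2 product signals, plus loss of substrate signals, checked by eye at 2, 4, 6, 8 h. Conditions: 1 mM peptide mixture, 2 mM Ni2+, 10 mM Tris pH 8.2, 37 or 45 °C.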

Substance | hydrolysis score from MALDI-TOF screening (37° C.) | hydrolysis score from MALDI-TOF screening (45° C.)
Ac-GATKHWKFL-NH2 [TKHW] | 6 (a score of 6 for detection at 4 hours) | 12 (a score of 12, if it was seen to be partially hydrolysed at 2 hours)
Ac-GATKHYKFL-NH2 [TKHY] | 3 (a score of 3 for detection at 8 hours) | 6 (a score of 6 for detection at 4 hours)
Ac-GATLHAKFL-NH2 [TLHA] | 0 (a score of 0 if no trace of the product of hydrolysis was seen after 8 hours of incubation) | 0 (a score of 0 if no trace of the product of hydrolysis was seen after 8 hours of incubation)
Ac-GATLHDKFL-NH2 [TLHD] | 0 (a score of 0 if no trace of the product of hydrolysis was seen after 8 hours of incubation) | 0 (a score of 0 if no trace of the product of hydrolysis was seen after 8 hours of incubation)
Ac-GATLHEKFL-NH2 [TLHE] | 0 (a score of 0 if no trace of the product of hydrolysis was seen after 8 hours of incubation) | 0 (a score of 0 if no trace of the product of hydrolysis was seen after 8 hours of incubation)
Ac-GATLHFKFL-NH2 [TLHF] | 0 (a score of 0 if no trace of the product of hydrolysis was seen after 8 hours of incubation) | 0 (a score of 0 if no trace of the product of hydrolysis was seen after 8 hours of incubation)
Ac-GATLHGKFL-NH2 [TLHG] | 0 (a score of 0 if no trace of the product of hydrolysis was seen after 8 hours of incubation) | 0 (a score of 0 if no trace of the product of hydrolysis was seen after 8 hours of incubation)
Ac-GATLHHKFL-NH2 [TLHH] | 0 (a score of 0 if no trace of the product of hydrolysis was seen after 8 hours of incubation) | 0 (a score of 0 if no trace of the product of hydrolysis was seen after 8 hours of incubation)
Ac-GATLHIKFL-NH2 [TLHI] | 0 (a score of 0 if no trace of the product of hydrolysis was seen after 8 hours of incubation) | 0 (a score of 0 if no trace of the product of hydrolysis was seen after 8 hours of incubation)
Ac-GATLHKKFL-NH2 [TLHK] | 0 (a score of 0 if no trace of the product of hydrolysis was seen after 8 hours of incubation) | 3 (a score of 3 for detection at 8 hours)
Ac-GATLHLKFL-NH2 [TLHL] | 0 (a score of 0 if no trace of the product of hydrolysis was seen after 8 hours of incubation) | 0 (a score of 0 if no trace of the product of hydrolysis was seen after 8 hours of incubation)
Ac-GATLHMKFL-NH2 [TLHM] | 0 (a score of 0 if no trace of the product of hydrolysis was seen after 8 hours of incubation) | 0 (a score of 0 if no trace of the product of hydrolysis was seen after 8 hours of incubation)
Ac-GATLHNKFL-NH2 [TLHN] | 0 (a score of 0 if no trace of the product of hydrolysis was seen after 8 hours of incubation) | 0 (a score of 0 if no trace of the product of hydrolysis was seen after 8 hours of incubation)
Ac-GATLHPKFL-NH2 [TLHP] | 0 (a score of 0 if no trace of the product of hydrolysis was seen after 8 hours of incubation) | 0 (a score of 0 if no trace of the product of hydrolysis was seen after 8 hours of incubation)
Ac-GATLHQKFL-NH2 [TLHQ] | 0 (a score of 0 if no trace of the product of hydrolysis was seen after 8 hours of incubation) | 0 (a score of 0 if no trace of the product of hydrolysis was seen after 8 hours of incubation)
Ac-GATLHRKFL-NH2 [TLHR] | 0 (a score of 0 if no trace of the product of hydrolysis was seen after 8 hours of incubation) | 3 (a score of 3 for detection at 8 hours)
